Test results from patent US9006451B1, “2-anilinonicotinyl based chalcones useful as potential anticancer agents and process for preparation thereof” (Council of Scientific and Industrial Research, priority 2013, dated 2015).

Assays:
Type in all cases: cell-based
UO-31 = assay: NCI 60 human tumor cell line screen (SRB): UO-31; conditions: UO-31, Renal, 48 hours, read-out: GI50 values (μM conc.)
Protocol: (§1) The in vitro anticancer activity studies for these chalcone analogues were carried out at the National Cancer Institute, USA.
(§2) The chalcone compounds have been tested at NCI, USA, against sixty human tumor cell lines derived from nine cancer types (leukemia, non-small cell lung cancer, colon cancer, CNS cancer, melanoma cancer, ovarian cancer, renal cancer, prostate cancer and breast cancer). For these compounds results are expressed as growth inhibition (GI50) values as per NCI protocol.
(§3) We describe here the development and implementation of a pilot-scale, in vitro, anticancer drug screen utilizing a panel of 60 human tumor cell lines organized into subpanels representing leukemia, melanoma, and cancers of the lung, colon, kidney, ovary, and central nervous system. The ultimate goal of this disease-oriented screen is to facilitate the discovery of new compounds with potential cell line-specific and/or subpanel-specific antitumor activity. In the current screening protocol, each cell line is inoculated onto microtiter plates, then preincubated for 28 hours. Subsequently, test agents are added in five 10-fold dilutions and the culture is incubated for an additional 48 hours. For each test agent, a dose-response profile is generated. End-point determinations of the cell viability or cell growth are performed by in situ fixation of cells, followed by staining with a protein-binding dye, sulforhodamine B (SRB). The SRB binds to the basic amino acids of cellular macromolecules; the solubilized stain is measured spectrophotometrically to determine relative cell growth or viability in treated and untreated cells.

NCI-H23 = assay: NCI 60 human tumor cell line screen (SRB): NCI-H23; conditions: NCI-H23, Non-small cell lung, 48 hours, read-out: GI50 values (μM conc.)
Protocol: as §1, §2, §3

COLO-205 = assay: NCI 60 human tumor cell line screen (SRB): COLO-205; conditions: COLO-205, Colon, 48 hours, read-out: GI50 values (μM conc.)
Protocol: as §1, §2, §3

OVCAR-4 = assay: NCI 60 human tumor cell line screen (SRB): OVCAR-4; conditions: OVCAR-4, Ovarian, 48 hours, read-out: GI50 values (μM conc.)
Protocol: as §1, §2, §3

HOP-62 = assay: NCI 60 human tumor cell line screen (SRB): HOP-62; conditions: HOP-62, Non-small cell lung, 48 hours, read-out: GI50 values (μM conc.)
Protocol: as §1, §2, §3

IGROV1 = assay: NCI 60 human tumor cell line screen (SRB): IGROV1; conditions: IGROV-1, IGROV1, Ovarian, 48 hours, read-out: GI50 values (μM conc.)
Protocol: as §1, §2, §3

HOP-92 = assay: NCI 60 human tumor cell line screen (SRB): HOP-92; conditions: HOP-92, Non-small cell lung, 48 hours, read-out: GI50 values (μM conc.)
Protocol: as §1, §2, §3

M14 = assay: NCI 60 human tumor cell line screen (SRB): M14; conditions: M14, Melanoma, 48 hours, read-out: GI50 values (μM conc.)
Protocol: as §1, §2, §3

EKVX = assay: NCI 60 human tumor cell line screen (SRB): EKVX; conditions: Non-small cell lung, 48 hours, read-out: GI50 values (μM conc.)
Protocol: as §1, §2, §3

SK-MEL-28 = assay: NCI 60 human tumor cell line screen (SRB): SK-MEL-28; conditions: SK-MEL-28, Melanoma, 48 hours, read-out: GI50 values (μM conc.)
Protocol: as §1, §2, §3

SK-MEL-5 = assay: NCI 60 human tumor cell line screen (SRB): SK-MEL-5; conditions: SK-MEL-5, Melanoma, 48 hours, read-out: GI50 values (μM conc.)
Protocol: as §1, §2, §3

HS 578T = assay: NCI 60 human tumor cell line screen (SRB): HS 578T; conditions: Breast, 48 hours, read-out: GI50 values (μM conc.)
Protocol: as §1, §2, §3

SF-539 = assay: NCI 60 human tumor cell line screen (SRB): SF-539; conditions: SF-539, CNS, 48 hours, read-out: GI50 values (μM conc.)
Protocol: as §1, §2, §3

MDA-MB-435 = assay: NCI 60 human tumor cell line screen (SRB): MDA-MB-435; conditions: MDA-MB-435, Melanoma, 48 hours, read-out: GI50 values (μM conc.)
Protocol: as §1, §2, §3

SK-MEL-2 = assay: NCI 60 human tumor cell line screen (SRB): SK-MEL-2; conditions: SK-MEL-2, Melanoma, 48 hours, read-out: GI50 values (μM conc.)
Protocol: as §1, §2, §3

RXF 393 = assay: NCI 60 human tumor cell line screen (SRB): RXF 393; conditions: RXF 393, Renal, 48 hours, read-out: GI50 values (μM conc.)
Protocol: as §1, §2, §3

HCT-15 = assay: NCI 60 human tumor cell line screen (SRB): HCT-15; conditions: HCT-15, Colon, 48 hours, read-out: GI50 values (μM conc.)
Protocol: as §1, §2, §3

NCI-H322M = assay: NCI 60 human tumor cell line screen (SRB): NCI-H322M; conditions: Non-small cell lung, 48 hours, read-out: GI50 values (μM conc.)
Protocol: as §1, §2, §3

NCI/ADR-RES = assay: NCI 60 human tumor cell line screen (SRB): NCI/ADR-RES; conditions: Ovarian, 48 hours, read-out: GI50 values (μM conc.)
Protocol: as §1, §2, §3

UACC-62 = assay: NCI 60 human tumor cell line screen (SRB): UACC-62; conditions: UACC-62, Melanoma, 48 hours, read-out: GI50 values (μM conc.)
Protocol: as §1, §2, §3

HCC-2998 = assay: NCI 60 human tumor cell line screen (SRB): HCC-2998; conditions: HCC-2998, Colon, 48 hours, read-out: GI50 values (μM conc.)
Protocol: as §1, §2, §3

U251 = assay: NCI 60 human tumor cell line screen (SRB): U251; conditions: U-251, U251, CNS, 48 hours, read-out: GI50 values (μM conc.)
Protocol: as §1, §2, §3

NCI-H522 = assay: NCI 60 human tumor cell line screen (SRB): NCI-H522; conditions: NCI-H522, Non-small cell lung, 48 hours, read-out: GI50 values (μM conc.)
Protocol: as §1, §2, §3

CAKI-1 = assay: NCI 60 human tumor cell line screen (SRB): CAKI-1; conditions: CAKI-1, Renal, 48 hours, read-out: GI50 values (μM conc.)
Protocol: as §1, §2, §3

CCRF-CEM = assay: NCI 60 human tumor cell line screen (SRB): CCRF-CEM; conditions: Leukemia, 48 hours, read-out: GI50 values (μM conc.)
Protocol: as §1, §2, §3

SN12C = assay: NCI 60 human tumor cell line screen (SRB): SN12C; conditions: Renal, 48 hours, read-out: GI50 values (μM conc.)
Protocol: as §1, §2, §3

T-47D = assay: NCI 60 human tumor cell line screen (SRB): T-47D; conditions: T47D, Breast, 48 hours, read-out: GI50 values (μM conc.)
Protocol: as §1, §2, §3

SF-295 = assay: NCI 60 human tumor cell line screen (SRB): SF-295; conditions: SF-295, CNS, 48 hours, read-out: GI50 values (μM conc.)
Protocol: as §1, §2, §3

RPMI-8226 = assay: NCI 60 human tumor cell line screen (SRB): RPMI-8226; conditions: RPMI-8226, Leukemia, 48 hours, read-out: GI50 values (μM conc.)
Protocol: as §1, §2, §3

SMILES: COc1cc(Nc2ncccc2/C=C/C(=O)c2cc(OC)c(OC)c(OC)c2)cc(OC)c1OC [6v, (E)-1-(3,4,5-Trimethoxyphenyl)-3-(2-(3,4,5-trimethoxyphenylamino)pyridin-3-yl)prop-2-en-1-one]
- GI50 (UO-31): 5.09 µM
- GI50 (NCI-H23): 10.2 µM
- GI50 (COLO-205): 4.44 µM
- GI50 (OVCAR-4): 9.78 µM
- GI50 (HOP-62): 12.1 µM
- GI50 (IGROV1): 12.6 µM
- GI50 (HOP-92): 0.94 µM
- GI50 (M14): 8.99 µM
- GI50 (EKVX): 7.55 µM
- GI50 (SK-MEL-28): 5.43 µM
- GI50 (SK-MEL-5): 4.17 µM
- GI50 (HS 578T): 13.2 µM
- GI50 (SF-539): 12.2 µM
- GI50 (MDA-MB-435): 5.63 µM
- GI50 (SK-MEL-2): 8 µM
- GI50 (RXF 393): 5.22 µM
- GI50 (HCT-15): 5.02 µM
- GI50 (NCI-H322M): 21.1 µM
- GI50 (NCI/ADR-RES): 4.44 µM
- GI50 (UACC-62): 4.96 µM
- GI50 (HCC-2998): 7.74 µM
- GI50 (U251): 4.1 µM
- GI50 (NCI-H522): 7.44 µM
- GI50 (CAKI-1): 4.01 µM
- GI50 (CCRF-CEM): 7.08 µM
- GI50 (SN12C): 5.1 µM
- GI50 (T-47D): 5.3 µM
- GI50 (SF-295): 4.92 µM
- GI50 (RPMI-8226): 6.83 µM

SMILES: COc1ccc(C(=O)/C=C/c2cccnc2Nc2cc(OC)c(OC)c(OC)c2)cc1 [6z, (E)-1-(4-Methoxyphenyl)-3-(2-(3,4,5-trimethoxyphenylamino)pyridin-3-yl)prop-2-en-1-one]
- GI50 (UO-31): 1.44 µM
- GI50 (NCI-H23): 4.02 µM
- GI50 (COLO-205): 1.54 µM
- GI50 (OVCAR-4): 1.78 µM
- GI50 (HOP-62): 2.18 µM
- GI50 (IGROV1): 4.64 µM
- GI50 (HOP-92): 2.4 µM
- GI50 (M14): 2.55 µM
- GI50 (EKVX): 10.8 µM
- GI50 (SK-MEL-28): 3.72 µM
- GI50 (SK-MEL-5): 2.41 µM
- GI50 (HS 578T): 6.38 µM
- GI50 (SF-539): 1.81 µM
- GI50 (MDA-MB-435): 0.74 µM
- GI50 (SK-MEL-2): 7.04 µM
- GI50 (RXF 393): 1.68 µM
- GI50 (HCT-15): 0.91 µM
- GI50 (NCI-H322M): 7.38 µM
- GI50 (NCI/ADR-RES): 1.38 µM
- GI50 (UACC-62): 1.9 µM
- GI50 (HCC-2998): 1.42 µM
- GI50 (U251): 1.27 µM
- GI50 (NCI-H522): 1.33 µM
- GI50 (CAKI-1): 2.26 µM
- GI50 (CCRF-CEM): 0.71 µM
- GI50 (SN12C): 1.91 µM
- GI50 (T-47D): 2.04 µM
- GI50 (SF-295): 2.91 µM
- GI50 (RPMI-8226): 0.85 µM

SMILES: COc1cc(/C=C/C(=O)c2cccnc2Nc2ccc(F)cc2)cc(OC)c1OC [7f, (E)-1-(2-(4-Fluorophenylamino)pyridin-3-yl)-3-(3,4,5-trimethoxyphenyl)prop-2-en-1-one]
- GI50 (UO-31): 5.62 µM
- GI50 (NCI-H23): 2.34 µM
- GI50 (COLO-205): 2.64 µM
- GI50 (OVCAR-4): 3.81 µM
- GI50 (HOP-62): 2.9 µM
- GI50 (IGROV1): 7.42 µM
- GI50 (HOP-92): 1.67 µM
- GI50 (M14): 3.19 µM
- GI50 (EKVX): 3.94 µM
- GI50 (SK-MEL-28): 3.22 µM
- GI50 (SK-MEL-5): 2.51 µM
- GI50 (HS 578T): 3.68 µM
- GI50 (SF-539): 2.85 µM
- GI50 (MDA-MB-435): 3.05 µM
- GI50 (SK-MEL-2): 2.52 µM
- GI50 (RXF 393): 2.81 µM
- GI50 (HCT-15): 2.27 µM
- GI50 (NCI-H322M): 4.83 µM
- GI50 (NCI/ADR-RES): 2.37 µM
- GI50 (UACC-62): 2.35 µM
- GI50 (HCC-2998): 1.78 µM
- GI50 (U251): 2.78 µM
- GI50 (NCI-H522): 2.69 µM
- GI50 (CAKI-1): 3.68 µM
- GI50 (CCRF-CEM): 2.45 µM
- GI50 (SN12C): 3.23 µM
- GI50 (T-47D): 3.06 µM
- GI50 (SF-295): 4.16 µM
- GI50 (RPMI-8226): 2.43 µM
